Data published in patent US20230149483A1, “SHORT-CHAIN FATTY ACID USE TO MITIGATE ANT[…] VIRULENCE GENE TRANSFER IN THE GUT” (Iowa State University Research Foundation, Inc., priority 2021, published 2023).
Where two headings read alike, the source gives them in different places.

Tests used:
[1] = test system: conjugation pair E. coli APEC-02 to E. coli HS-4 in chicken ceca explants; type: cell-based
Protocol: Ex vivo ceca explants serve as models for bacterial host interactions. Plasmid transfer and its inhibition by SCFAs were tested using chicken ceca explants to mimic in vivo conditions. Chicken ceca explants were harvested from 2 week-old chickens, cultured in vitro, and used in co-culture with donors/recipients in the presence or absence of SCFAs.

[2] = test system: conjugation pair E. coli APEC-02 to E. coli HS-4 (plasmid pAPEC-02-211A-ColV, IncF); type: cell-based
[3] = test system: conjugation pairs S. Kentucky CVM29188 to E. coli HS-4 and E. coli APEC-02 to E. coli HS-4; details: for reduction of donor and recipient strains / transconjugant populations: physiological concentrations of SCFAs in the chicken gut, both conjugation pairs
Protocol: Physiological concentrations of SCFAs in the chicken gut were added to broth conjugations with the conjugation pairs 1) S. Kentucky CVM29188 to E. coli HS-4, and 2) E. coli APEC-02 to E. coli HS-4 (FIG. 3).

[4] = test system: transfer of conjugative plasmid pCVM29188_146 (IncF) between E. coli MG1655 (pCVM29188_146) and E. coli HS-4; test: In vitro broth conjugation with propionate at fly media concentrations; type: cell-based; details: as low as half the concentrations of standard Drosophila fly media
[5] = 25 mM, each SCFA used individually, ceca explants from 2 week-old chickens
[6] = broth conjugation, varying molar concentrations between 0 and 1 molar (FIG. 4)

Row | SMILES | efficacy in inhibition of plasmid transfer [1] | transconjugant populations [2] | reduction of donor and recipient strains [3] | transconjugant populations [3] | efficacy in inhibition of plasmid transfer [1, 5] | transconjugant populations [2, 6] | conjugation ([3]; physiological concentrations of propionate in the chicken gut) | conjugation frequency (transconjugants divided by donors) [4]
1 | CC(=O)O [acetic acid] | showed efficacy | significantly reduced | not | significantly reduced |  |  |  | 
2 | CCCC(=O)O [butyric acid, butyric (butanoic) acid] |  |  | not | significantly reduced | showed efficacy | significantly reduced |  | 
3 | O=CO [formic acid] | showed efficacy | significantly reduced |  |  |  |  |  | 
4 | CC(C)C(=O)O [isobutyric acid, isobutyric (2-methylbutanoic) acid] |  |  |  |  | showed efficacy | significantly reduced |  | 
5 | CC(C)CC(=O)O [isovaleric acid, isovaleric (3-methylbutanoic)] |  |  |  |  | showed efficacy | significantly reduced |  | 
6 | CCC(=O)O [propionic acid] |  |  |  |  | showed efficacy | significantly reduced | did not significantly reduce | significant decreases
7 | CCCCC(=O)O [valeric acid, valeric (pentanoic) acid] |  |  |  |  | showed efficacy | significantly reduced |  | 
